Reference: patent publication US7214512B2, “Genomic mammary Amyloid a sequence” (The Board of Regents of the University of Nebraska, priority 1999, dated 2007)
“And” between values parts separate entries of the source, which are not always exact repeats. Equal entries are not always repeated.

Columns and labels:
MUC2 mRNA = MUC2 mRNA expression in intestinal epithelial cells cultured under conditions favoring MUC2; format: cell-based, human; details: for MUC2 mRNA/28s RNA ratio, Mean: peptide comparison, conditions optimized for MUC3 stimulation, Control = 100.000
Excerpt: (§1) These four peptides were used in a cell culture assay designed to evaluate them for their properties of inducing mucin (MUC) mRNA production, either MUC3 or MUC2 according to the methods described by Mack et al. (Biochem. Biophys. Res. Commun. 199: 1012–1018, 1994 and Am J Physiol. Vol. 4, part 1, pg. G841–950, 1999).
MUC2 mRNA Stimulation. To address whether the N-Terminal 10 amino acid bovine colostrum-SAA peptide would stimulate mRNA synthesis for MUC2 production, intestinal epithelial cells were cultured under conditions favoring MUC2 expression rather than MUC3. All peptides were used at concentrations and conditions that were previously optimized for MUC3 stimulation. […] Additionally, conditions were changed to 2× the optimum MUC3 incubation time (1 hr). […] The evidence strongly indicates specificity of function in stimulating the production of a mucin produced mainly in the small intestine (MUC3) over one produced primarily in the large intestine (MUC2) (see FIG. 9).

MUC3 mRNA = MUC3 mRNA expression in intestinal epithelial cell culture assay; format: cell-based, human; details: for MUC3 mRNA/28s RNA ratio, Mean: peptide comparison, Control = 100.000; for MUC3 mRNA/28s RNA ratio, Mean / MUC3 mRNA stimulation versus control (in words): 30 minutes at 37° C. at 50 μg/ml; for MUC3 mRNA stimulation versus control (in words): p<0.008
Excerpt: Different mucin genes have been identified and to date, twelve human mucin genes have been identified. However, MUC3 mucin is the predominant intestinal mucin. It has previously been shown that the MUC3 mucins are effective in preventing the adherence of enteropathogenic Escherichia coli (EPEC) to intestinal epithelial cells. […] It is also well known that breast-feeding infants are far less susceptible to infectious diarrhea than formula fed infants. There are a number of theories why this is so, but it is hypothesized that milk-associated amyloid (colostrum SAA) may be an important inducer of MUC3 gene expression. Applicant has evaluated MUC3 mRNA expression using an in vitro human cell culture assay system. In this system, intestinal cells incubated with the N-terminal peptide sequence of colostrum SAA have shown increased MUC3 mRNA expression as compared to control cells grown without the addition of colostrum SAA to the cell culture medium. To further explore this finding, Applicant has evaluated the functional specificity of the N-terminal peptide sequence of colostrum SAA by evaluation of MUC3 expression in the same in vitro assay using colostrum SAA N-terminal peptide sequences that have been randomly scrambled and a colostrum SAA peptide sequence downstream of the N-terminal sequence. If the expression of MUC3 is increased then intestinal cells grown in the presence of colostrum SAA should have a greater capacity to inhibit adherence of bacterial pathogens. This will be studied using EPEC in an in vitro assay system pre-incubated with colostrum SAA in the cell culture medium. Enteropathogenic E. coli are non-invasive, non-toxin producing pathogens that have been recognized as a significant cause of diarrhea in third world countries and in day care settings in developed countries. Future studies will evaluate the benefits of colostrum SAA in in vivo studies as well as characterized animal equivalent to human EPEC. Colostrum associated SAA provides a means to naturally upregulate the innate protective mechanisms of the human intestine and would provide a novel form of therapy to a common problem that occurs all too often in the third world leads to death of infants and in the developed world countries and leads to significant morbidity and cost. Furthermore, prevention of intestinal infections for traveler's or those having to live in conditions with altered sanitary practices would also reduce morbidity. Thus, this therapy offers an effective, natural, non-drug/chemical therapy.
as §1
N-Terminal Peptide Titration and MUC3 mRNA Expression. Intestinal epithelial cells, Mack et al. 1994, 1999, were exposed to the N-terminal 10 amino acid bovine colostrum-SAA peptide (SEQ ID NO:30) at various concentrations for 30 minutes incubation at […]. The cells were incubated an additional hour following replacement of the test medium with fresh medium without peptide and then the total cellular niRNA isolated and analyzed for MUC3 specific mRNA. […] The optimum concentration was 50 μg/ml medium (see FIG. 7).
MUC3 Stimulation. MUC3 stimulating activity of the N-terminal 10 amino acid bovine colostrum-SAA peptide was compared to the activity of the “Limited Scramble”, the “Total Scramble” and “C-Terminal peptides”. Optimum time and temperature of incubation and concentration of peptides was for 30 minutes at 37° C. at 50 μg/ml respectively.

[1] = Isoelectric focusing (IEF) and 2-D gel of SAA preparations; format: physicochemical; details: IEF on IPG strips, anti-SAA monoclonal antibody stain
Excerpt: Isoelectric Focusing (IEF) of SAA from serum, colostrum and cell culture fluid. The PROTEIN IEF Cell (BioRad) was used for the isoelectric focusing of the various SAA preparations. Ready Strip IPG Strips (BioRad Laboratories) with a pH range of 3–10 were used for the IEF. The second dimension (2-D) of the protein analysis was done by subjecting the IPG strips to 12% SDS-PAGE gel and electroblotting onto a PVDF membrane. The strips and blots were done in duplicate so that one of the blots could be stained with a protein stain, Coomassie Brilliant Blue, (CBB) and the other stained with the anti-SAA monoclonal antibody for the identification of the SAA protein isoforms. The samples also contained internal IEF standards (BioRad Laboratories) so that isoelectric point (pI) of each SAA isoforms could be determined. By comparing the antibody stained spots to the spots of the standards stained with CBB the apparent pI of the SAA isoforms could be determined. […]
The proteins subjected to the IEF and 2-D analysis were either affinity purified as described for the cell culture fluid or, in the case of the serum only semi-purified by hydrophobic chromatography. SAA is a highly hydrophobic molecule and will bind readily to Octyl Sepharose beads and then under the appropriate conditions can be eluted off the matrix. […]

[2] = system: Bovine MAC-T mammary gland epithelial cells; experiment: Colostrum-SAA production by MAC-T cells stimulated with prolactin (ELISA); format: cell-based
Method: Bovine MAC-T mammary gland epithelial cells were obtained from ATCC (CRL-10274) and cultured according to recommended conditions (Turner, J D and Huynh H. Immortalized bovine mammary epithelial cell line. U.S. Pat. No. 5,227,301 dated Jul. 13, 1993). MAC-T cells were cultured on Dulbecco's Modified Eagles Media (DMEM) supplemented with 10% Fetal Calf Serum (FCS), 5 μg/ml insulin, 1 μg/ml hydrocortisone and fungizone. Cells were incubated at 37° C. with 5% CO2. For colostrum-SAA production the cells were seeded onto type I Collagen coated plates. After 14 hours of incubation, the cells were washed twice with Dulbecco's phosphate buffered saline (DPBS) and incubated in media (DMEM, 5 μg/ml insulin, 1 μg/ml hydrocortisone and 2.5% FCS) supplemented with prolactin from sheep pituitary gland (5 μg/ml) for the stimulation of colostrum-SAA production. Approximately one half of the media was replaced daily with fresh prolactin supplemented media. Standard ELISA for the quantitation of SAA (FIG. 3) was used to assay aliquots of the growth media collected on the different days for the presence of colostrum-SAA.
Cells were kept in culture for 41 days in media supplemented with prolactin. Levels of colostrum-SAA production reached a maximum of almost 3000 ng/ml.

With “DAAQRGPQQA (peptide of residues in C-terminal region of bovine SAA used as experimental control) [control 10 amino acid peptide, first 7 residues from the C-terminal region of bovine SAA, reference compound]” the “MUC2 mRNA/28s RNA ratio, Mean” value (MUC2 mRNA) was 67.500 and the “MUC3 mRNA/28s RNA ratio, Mean” value (MUC3 mRNA) was 111.333.

For “GKFAWEGMTL (randomized experimental control sequence) [Total Scramble, control peptide with the amino acids of the entire N-Terminal peptide in random order, reference compound]”, the “MUC2 mRNA/28s RNA ratio, Mean” value (MUC2 mRNA) was 65.833 and the “MUC3 mRNA/28s RNA ratio, Mean” value (MUC3 mRNA) was 109.333.

For “MWGLTKFEAG (limited scramble for experiment) [N-terminal peptide in which the four TFLK amino acids were scrambled in their order, reference compound]”, the “MUC2 mRNA/28s RNA ratio, Mean” value (MUC2 mRNA) was 87.167, the “MUC3 mRNA stimulation versus control (in words)” value (MUC3 mRNA) was “lack of stimulation” and the “MUC3 mRNA/28s RNA ratio, Mean” value (MUC3 mRNA) was 95.000.

In the case of “MWGTFLKEAG (N-terminal region of bovine colostrum SAA) [10 amino acid N-terminal portion of mature bovine colostrum-SAA containing the conserved TFLK]”, the “MUC2 mRNA increase over control (in words)” value (MUC2 mRNA; 100 and 500 μg/ml, incubation time 1 hr) is reported as “None of these changes resulted in MUC2 mRNA increase over control values”, the “MUC2 mRNA stimulation versus control (in words)” value (MUC2 mRNA; concentrations and conditions optimized for MUC3 stimulation) is reported as “the values were not significantly different” and the “MUC2 mRNA/28s RNA ratio, Mean” value (MUC2 mRNA) is reported as 101.167. The “time in which intestinal mucin genes are turned on” value (MUC3 mRNA) was at most 30 min, the “MUC3 mRNA stimulation versus control (in words)” value (MUC3 mRNA) was “stimulated MUC3 mRNA statistically significantly over the control values” and the “optimum concentration for MUC3 mRNA stimulation” value (MUC3 mRNA; 30 minutes incubation) was 50 μg/ml medium. The “MUC3 mRNA/28s RNA ratio, Mean” value (MUC3 mRNA) was 174.833.

B1: SAA from the serum: SAA semi-purified from bovine serum, three isoforms staining with anti-SAA monoclonal antibody (protein)
chain: QWMSFFGEAYEGAKDMWRAYSDMREANYKGADKYFHARGNYDAAQRGPGGAWAAKVISDARENIQRFTDPLFKGTTSGQGQEDSRADQAANEWGRSGKDPNHFRPAGLPDKY
In the case of B1, the “apparent pI” value [1] is reported as ~7.0 and ~5.8 and ~5.5.

B2: colostrum-SAA: unique isoform of serum amyloid A found in bovine colostrum and MAC-T cell culture fluid (protein)
chain: QRWGTFLKEAGQGAKDMWRAYQDMKEANYRGADKYFHARGNYDAARRGPGGAWAAKVISNARETIQGITDPLFKGMTRDQVREDSKADQFANEWGRSGKDPNHFRPAGLPDKY
In the case of B2, the “apparent pI” value ([1]; listed as SAA purified from the culture fluid of MAC-T cells stimulated with LPS) is reported as 9.4–9.6.

B3: prolactin: prolactin from sheep pituitary gland, used to stimulate colostrum-SAA production (protein, UniProt P01240 31-229, looked up)
Prolactin: TPVCPNGPGNCQVSLRDLFDRAVMVSHYIHNLSSEMFNEFDKRYAQGKGFITMALNSCHTSSLPTPEDKEQAQQTHHEVLMSLILGLLRSWNDPLYHLVTEVRGMKGVPDAILSRAIEIEEENKRLLEGMEMIFGQVIPGAKETEPYPVWSGLPSLQTKDEDARHSAFYNLLHCLRRDSSKIDTYLKLLNCRIIYNNNC
With B3 the “maximum level of colostrum-SAA production” value ([2]; prolactin 5 μg/ml in media, 41 days in culture) was about 3000 ng/mL and the “detection of colostrum-SAA in media (in words)” value ([2]; prolactin stimulation, eight days) was “Measurable quantities of colostrum-SAA could be detected by day two”.
